Reference: patent publication US8022036B2, “Use of thymosin alpha 1 for the treatment of immunological diseases” (Sigma-Tau Industrie Farmaceutiche Riunite S.p.A., priority 2006, dated 2011)
No end group written: not given here.

Key:
[1] = test system: GM-DCs or FL-DCs; assay: Cytokine production (ELISA) by murine GM-DCs or FL-DCs with Aspergillus conidia; format: cell-based, mouse
Text: GM-DCs or FL-DCs were obtained from purified CD14+ monocytes from healthy donors or transplanted patients (1 month post-HSCT) cultured in Iscove's modified medium for 7-9 days, in the presence of rGM-CSF (Schering-Plough, Milan, Italy) and rIL-4 (Peprotech, Inalco, Milan, Italy) or FLT3-L (Immunex Corporation, Seattle, Wash.) (Blood. 2004; 103:4232-4239). DC recovery was between 20-30% reduced in cultures from transplanted patients. Murine GM-DCs or FL-DCs were obtained from bone marrow cells for 7-9 days, as described (Blood. 2004; 103:4232-4239). Thymosin alpha 1 and sThymosin alpha 1 were added to the cultures at 20 ng/mL. DCs (>99% CD11c+ consisting of 90-95% CD8-, 5-10% CD8+, and 1-5% B220+ cells) were purified from spleens (spDCs) by magnetic-activated sorting using CD11c MicroBeads and MidiMacs (Miltenyi Biotech). DC populations were further separated into CD8−, CD8+ and B220+ fractions by means of CD8 or B220 MicroBeads (Miltenyi Biotech). DCs were pulsed in serum-free Iscove medium for 24 hours with live unopsonized Aspergillus conidia or Zymosan from Saccharomyces cerevisiae (Sigma) or CpG-ODN 2006 as described.7 Phagocytosis was done as described (Blood. 2004; 103:4232-4239). Photographs were taken using a high Resolution Microscopy Color Camera AxioCam, using the AxioVision Software Rel. 3.1 (Carl Zeiss, Milan, Italy).
Cytokine content was assessed by enzyme-linked immunosorbent assays (Endogen Human Elisa Kits, R&D Systems and Euroclone, Milan, Italy). AID EliSpot assay kits (Amplimedical, Buttigliera Alta, Turin, Italy) were used on purified splenic CD4+ Tcells cocultured with conidia-pulsed DCs for 5 days to enumerate cytokine-producing cells (Blood. 2003; 102:3807-3814). 1-MT was used at 2 μM.
(B) Cytokine production (ELISA) by GM-DCs or FL-DCs cultured in serum-free medium (1×10^6 cells/mL) with unopsonized Aspergillus conidia (5×10^5/mL) for 24 hours. The IDO inhibitor 1-MT was added at 2 μM. Data are aggregated results from three independent experiments. The detection limits (pg/mL) of the assays were <16 for IL-12p70 and <12 for IL-10.

[2] = test system: lung homogenates, TLN CD4+ T cells; assay: Inflammatory/Th/T reg responses in lung and TLN of infected HSCT mice given DCs (ELISA, ELISPOT, RT-PCR, flow cytometry); format: in vivo, mouse
Description: Mice received twice intraperitoneal injections of DCs, at weekly interval, starting a day after HSCT and infected a week after the last DC administration. Three days later, lung homogenates, CD4+ T cells (>98% on FACS analysis), CD4+CD25− (>98%) or CD4+CD25+ (>82%) purified with the specific Miltenyi Biotec isolation kits were assessed for pattern of pro- and anti-inflammatory (TNF-a/IL-10 in lung homogenates), Th1 (IFN-γ) or Th2 (IL-4) cytokine production by CD4+ cells stimulated with Aspergillus-pulsed DCs (Blood. 2003; 102:3807-3814) frequency of CD25+ IL-10^+ TGF-β+ T reg cells, lymphoproliferation and gene expression by RT-PCR. For proliferation, TLN CD4+ T lymphocytes were plated (10^5 cells/well) with 10^5 cells/well irradiated allogeneic splenocytes or autologous spDCs pulsed with conidia or 10 μg/mL Con A for five days before H^3-thymidine labeling.
RNA extraction, synthesis and PCR of cDNA, sequences of gene-specific primers, annealing temperatures and amplification cycles were done as described in J. Immunol. 2006; 176:1712-1723). Amplification efficiencies were validated and normalized against GAPDH.
(A) TNF-a/IL-10 levels were assessed by specific ELISA in lung homogenates and IFN-γ/IL-4 production were assessed in TLN CD4+ T cells cocultured with Aspergillus-pulsed DCs. Bars indicate standard errors. TLN CD4+CD25+ T cells producing IL-10 or TGF-β were numbered by ELISPOT assay. Results are expressed as the mean number of cytokine-producing cells (±SE) per 2×10^5 cells. *P<0.05, DC-treated versus untreated mice. (**) P<0.05, Thymosin alpha 1-treated DCs versus untreated DCs.
(B) Total RNA was extracted from freshly purified CD4+ T cells from TLN of treated or untreated (None) mice. The expressions of the different mRNAs in each cell population were determined by RT-PCR. The expression of a housekeeping gene, Gapdh mRNA, was used as an internal control. The data shown are representative results of three experiments.
(C) Phenotypic analysis of cells isolated from lung or TLN of mice infused or not (None) with different types of DCs, (−) indicating uninfected, untreated mice. CD4+ T cells were sequentially reacted with PE-conjugated anti-CD25 (PC61) and FITC-conjugated anti-CD69 (clone H1.2F3) mAbs. Numbers represent the percentage of positive cells over total cells analyzed. Control staining of cells with irrelevant Ab was used to obtain background fluorescence values. Histograms are representative of one out of four independent experiments.

[3] = in response to Aspergillus conidia, 24 hours
[4] = mice given Thymosin alpha 1-treated GM-DCs

In the case of “Thymosin alpha 1: naturally occurring thymic peptide; supplied as purified, endotoxin-free sterile lyophilized acetylated polypeptide from SciClone Pharmaceuticals (Ac-SDAAVDTSSEITTKDLKEKKEVVEEAEN; UniProt P06454 2-29, looked up)”, the “IL-10 production by cells from TLR9-/- or IFN-aβR-/- mice” value ([1]; GM-DCs or FL-DCs, in response to Thymosin alpha 1) is reported as “did not occur”, the “release of IL-10 and IL-12 by FL-DCs” value [1, 3] is reported as “IL-10, more than IL-12” and the “release of IL-12 and IL-10 by GM-DCs” value [1, 3] is reported as “induced release of IL-12 and IL-10”. For the same substance, the “compartmentalization of induced T reg (lungs vs TLN), FL-DCs” value ([2]; Thymosin alpha 1-treated FL-DCs) was “the opposite was true”, the “TNF-a/IL-10 production in lung homogenates” value ([2]; Thymosin alpha 1-treated GM-DCs, compared with TNF-a high, IL-10 low in untreated or GM-DC mice) was “the reverse being true” and the “compartmentalization of induced T reg (lungs vs TLN), GM-DCs” value ([2]; Thymosin alpha 1 treated GM-DCs) was “induced T reg in the lungs more than TLN”. For the same substance, the “CD62L marker on CD25+ T cells” value [2, 4] was “stained positive”, the “Foxp3 mRNA in TLN CD4+ T cells (RT-PCR)” value [2, 4] was “expressed” and the “IFN-γ production by TLN CD4+ T cells” value [2, 4] was “higher”. The “IL-4 production by TLN CD4+ T cells” value [2, 4] was “lower” and the “CD69 activation marker on CD4+CD25+ T cells” value ([2]; mice given Thymosin alpha 1-treated GM-DCs or FL-DCs) was “did not stain positive”.
